Data on 37 molecules can be found in US11261192B2, “Substituted 1,2-dihydro-3H-pyrazolo[3,4-D]pyrimidin-3-ones” (Recurium IP Holdings, LLC, priority 2018, dated 2022).

One assay addresses Wee1 kinase (Homo sapiens, UniProt P30291). Put plainly: Wee1 Binding Assay (FRET). On the procedure:
Wee 1 kinase was determined by using Fluorescence Resonance Energy Transfer (FRET) assay. […] The plate was shaken for 30 seconds, incubated for 60 min at RT, and recorded on fluorescence plate reader.

The subject of the next assay is H23 cells. The assay is described as follows: H23 Cellular Proliferation Assay (CellTiter-Glo). The class given is cell-based. Particulars: Homo sapiens, NCI-H23, 96 h, 4 days, read-out: H23 CTG IC50. On the procedure: H23 Cellular Proliferation Assay
Cells were treated with compounds diluted in DMSO and a 9 point 5-fold serial dilutions. Plates were placed in 37° C., 5% CO2 for to incubate for 4 days. Before they were developed by adding 100 μL of CellTiter-Glo reagent (Promega) to the assay plate, plates were shaken briefly for 2 mins and allowed to incubate at rt for 10 mins. The plates are read with a M5e plate reader according to CellTiter-Glo protocol. The GraphPad Prism software is used to get IC50 values.
(In general: Cellular ATP, detected with luciferase, serves as a proxy for viable cell number.)

[1] abbreviates: FRET, Wee1 kinase 2 nM, tracer 178 50 nM, 60 min at RT, read-out: Wee1 enzymatic IC50.

Where two headings read alike, the source gives them in different places. A value given as a limit tells only on which side of the number the result lay.

Wee1 kinase, sequence (P30291 whole entry): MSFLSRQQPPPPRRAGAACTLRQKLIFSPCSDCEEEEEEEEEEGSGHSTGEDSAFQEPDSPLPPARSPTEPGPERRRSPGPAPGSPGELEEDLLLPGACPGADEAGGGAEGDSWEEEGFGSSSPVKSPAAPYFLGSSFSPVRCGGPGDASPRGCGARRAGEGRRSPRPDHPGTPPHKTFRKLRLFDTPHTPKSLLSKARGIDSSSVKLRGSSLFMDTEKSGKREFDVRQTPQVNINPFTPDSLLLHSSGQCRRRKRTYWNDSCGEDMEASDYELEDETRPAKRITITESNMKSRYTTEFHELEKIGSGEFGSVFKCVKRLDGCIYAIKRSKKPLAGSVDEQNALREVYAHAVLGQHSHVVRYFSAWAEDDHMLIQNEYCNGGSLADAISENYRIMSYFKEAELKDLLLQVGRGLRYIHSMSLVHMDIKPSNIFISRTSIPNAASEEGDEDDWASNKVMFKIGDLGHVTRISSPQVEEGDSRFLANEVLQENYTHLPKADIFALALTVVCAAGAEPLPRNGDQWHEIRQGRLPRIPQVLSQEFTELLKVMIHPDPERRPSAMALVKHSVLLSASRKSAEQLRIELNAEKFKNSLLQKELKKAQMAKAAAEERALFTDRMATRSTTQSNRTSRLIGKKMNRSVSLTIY

On to `C=CCn1c(=O)c2cnc(Nc3ccc(N4CCN(C)CC4)cc3)nc2n1-c1ccc2c(n1)[C@@H](O)CC2` (single isomer, unassigned) [Example 1A], for which the 50% inhibitory concentration (IC50) (commonly the concentration that gives 50% inhibition) at Wee1 kinase is less than 0.01 µM; in the assay on H23 cells it was greater than 1 µM.
In the case of `C=CCn1c(=O)c2cnc(Nc3ccc(N4CCN(C)CC4)cc3)nc2n1-c1ccc2c(n1)[C@H](O)CC2` (single isomer, unassigned) [Example 1B], at Wee1 kinase, the 50% inhibitory concentration (IC50) is less than 0.01 µM.
`C=CCn1c(=O)c2cnc(Nc3ccc(N4CCN(C)CC4)cc3)nc2n1-c1ccc2c(n1)[C@@](C)(O)CC2` (single isomer, unassigned) [Example 2A]: the 50% inhibitory concentration (IC50) on Wee1 kinase was less than 0.01 µM; in the assay with H23 cells it was greater than 1 µM.
On to `C=CCn1c(=O)c2cnc(Nc3ccc(N4CCN(C)CC4)cc3)nc2n1-c1ccc2c(n1)[C@](C)(O)CC2` (single isomer, unassigned) [Example 2B], for which the IC50 on Wee1 kinase was less than 0.01 µM; with H23 cells, 0.1 to 1 µM.
For `C=CCn1c(=O)c2cnc(Nc3ccc(N4CCN(C)CC4)cc3)nc2n1-c1ccc2c(n1)[C@](O)(C(F)(F)F)CC2` (single isomer, unassigned) [Example 3A] the same measures were less than 0.01 µM and greater than 1 µM.
As to `C=CCn1c(=O)c2cnc(Nc3ccc(N4CCN(C)CC4)cc3)nc2n1-c1ccc2c(n1)[C@@](O)(C(F)(F)F)CC2` (single isomer, unassigned) [Example 3B], the IC50 at Wee1 kinase was less than 0.01 µM; with H23 cells it was 0.1 to 1 µM.
As to `C=CCn1c(=O)c2cnc(Nc3ccc(N4CCN(C)CC4)cc3)nc2n1-c1ccc2c(n1)[C@@](C)(O)CO2` (single isomer, unassigned) [Example 4A], the concentration for half-maximal inhibition (IC50) on Wee1 kinase is less than 0.01 µM; in the assay with H23 cells, greater than 1 µM.
Regarding `C=CCn1c(=O)c2cnc(Nc3ccc(N4CCN(C)CC4)cc3)nc2n1-c1ccc2c(n1)[C@](C)(O)CO2` (single isomer, unassigned) [Example 4B], the IC50 on Wee1 kinase is less than 0.01 µM; in the assay on H23 cells it was greater than 1 µM.
In the case of `C=CCn1c(=O)c2cnc(Nc3ccc(N4CCN(C)CC4)cc3)nc2n1-c1ccc2c(n1)[C@](O)(CC)CC2` (single isomer, unassigned) [Example 9A], the IC50 at Wee1 kinase is less than 0.01 µM; with H23 cells, 0.1 to 1 µM.
For `C=CCn1c(=O)c2cnc(Nc3ccc(N4CCN(C)CC4)cc3)nc2n1-c1ccc2c(n1)[C@@](O)(CC)CC2` (single isomer, unassigned) [Example 9B] the same measures were less than 0.01 µM and 0.1 to 1 µM.
Regarding `C=CCn1c(=O)c2cnc(Nc3ccc(N4CCN(C)CC4)c(C)c3)nc2n1-c1ccc2c(n1)[C@@](C)(O)CC2` (single isomer, unassigned) [Example 10A], the half-inhibitory concentration (IC50) on Wee1 kinase is less than 0.01 µM; in the assay on H23 cells, 0.1 to 1 µM.
Take `C=CCn1c(=O)c2cnc(Nc3ccc(N4CCN(C)CC4)c(C)c3)nc2n1-c1ccc2c(n1)[C@](C)(O)CC2` (single isomer, unassigned) [Example 10B]: the half-inhibitory concentration (IC50) was less than 0.01 µM on Wee1 kinase and 0.1 to 1 µM with H23 cells.
Take `C=CCn1c(=O)c2cnc(Nc3ccc(N4CCN(C)CC4)c(F)c3)nc2n1-c1ccc2c(n1)[C@@](C)(O)CC2` (single isomer, unassigned) [Example 11A]: the IC50 on Wee1 kinase (setting [1]) was less than 0.01 µM; with H23 cells, greater than 1 µM.
As to `C=CCn1c(=O)c2cnc(Nc3ccc(N4CCN(C)CC4)c(F)c3)nc2n1-c1ccc2c(n1)[C@](C)(O)CC2` (single isomer, unassigned) [Example 11B], the IC50 on Wee1 kinase (setting [1]) is less than 0.01 µM; in the assay with H23 cells, 0.1 to 1 µM.
Regarding `C=CCn1c(=O)c2cnc(Nc3ccc(N4CCN(C)CC4)c(C)c3)nc2n1-c1ccc2c(n1)[C@](O)(CC)CC2` (single isomer, unassigned) [Example 12A], the IC50 is less than 0.01 µM at Wee1 kinase and 0.1 to 1 µM in the assay on H23 cells.
Regarding `C=CCn1c(=O)c2cnc(Nc3ccc(N4CCN(C)CC4)c(C)c3)nc2n1-c1ccc2c(n1)[C@@](O)(CC)CC2` (single isomer, unassigned) [Example 12B], the half-inhibitory concentration (IC50) at Wee1 kinase is less than 0.01 µM; in the assay on H23 cells, less than 0.1 µM.
In the case of `C=CCn1c(=O)c2cnc(Nc3ccc(N4CCN(C)CC4)cc3)nc2n1-c1ccc2c(n1)[C@](O)(C(F)F)CC2` (single isomer, unassigned) [Example 15A], the IC50 on Wee1 kinase was less than 0.01 µM; with H23 cells, greater than 1 µM.
Regarding `C=CCn1c(=O)c2cnc(Nc3ccc(N4CCN(C)CC4)cc3)nc2n1-c1ccc2c(n1)[C@@](O)(C(F)F)CC2` (single isomer, unassigned) [Example 15B], the figures for the IC50 at Wee1 kinase and in the assay with H23 cells were less than 0.01 µM and 0.1 to 1 µM, respectively.
Consider `C=CCn1c(=O)c2cnc(Nc3ccc(N4CCN(C)CC4)cc3)nc2n1-c1ccc2c(n1)[C@@](O)(C1CC1)CC2` (single isomer, unassigned) [Example 16B], for which the concentration for half-maximal inhibition (IC50) is less than 0.01 µM at Wee1 kinase and 0.1 to 1 µM in the assay on H23 cells.
Consider `C=CCn1c(=O)c2cnc(Nc3ccc(N4CCN(C)CC4)cc3)nc2n1-c1ccc2c(c1)[C@@](C)(O)CC2` (single isomer, unassigned) [Example 21A], for which the IC50 at Wee1 kinase is less than 0.01 µM; in the assay with H23 cells, greater than 1 µM.
Turning to `C=CCn1c(=O)c2cnc(Nc3ccc(N4CCN(C)CC4)cc3)nc2n1-c1ccc2c(c1)[C@](C)(O)CC2` (single isomer, unassigned) [Example 21B], the IC50 is less than 0.01 µM at Wee1 kinase and 0.1 to 1 µM with H23 cells.
Consider `C=CCn1c(=O)c2cnc(Nc3ccc(N4CCN(C)CC4)cc3)nc2n1-c1ccc2c(c1)[C@](O)(CC)CC2` (single isomer, unassigned) [Example 22A], for which the IC50 was 0.01 to 0.1 µM on Wee1 kinase (setting [1]) and greater than 1 µM with H23 cells.
With `C=CCn1c(=O)c2cnc(Nc3ccc(N4CCN(C)CC4)cc3)nc2n1-c1ccc2c(c1)[C@@](O)(CC)CC2` (single isomer, unassigned) [Example 22B], the IC50 is less than 0.01 µM at Wee1 kinase (setting [1]) and 0.1 to 1 µM with H23 cells.
For the molecule `C=CCn1c(=O)c2cnc(Nc3ccc(N4CCN(C)CC4)cc3)nc2n1-c1ccc2c(n1)[C@@](C)(O)CCC2` (single isomer, unassigned) [Example 25A], the concentration for half-maximal inhibition (IC50) at Wee1 kinase is less than 0.01 µM; in the assay on H23 cells, 0.1 to 1 µM.
As to `C=CCn1c(=O)c2cnc(Nc3ccc(N4CCN(C)CC4)cc3)nc2n1-c1ccc2c(n1)[C@](C)(O)CCC2` (single isomer, unassigned) [Example 25B], the values for the IC50 at Wee1 kinase and in the assay with H23 cells were less than 0.01 µM and 0.1 to 1 µM, respectively.
In the case of `C=CCn1c(=O)c2cnc(Nc3ccc(N4CCN(C)CC4)cc3)nc2n1-c1ccc2c(n1)[C@](O)(CC)CCC2` (single isomer, unassigned) [Example 26A], the IC50 was less than 0.01 µM on Wee1 kinase and greater than 1 µM with H23 cells.
Regarding `C=CCn1c(=O)c2cnc(Nc3ccc(N4CCN(C)CC4)cc3)nc2n1-c1ccc2c(n1)[C@@](O)(CC)CCC2` (single isomer, unassigned) [Example 26B], the half-inhibitory concentration (IC50) on Wee1 kinase is less than 0.01 µM; with H23 cells, less than 0.1 µM.
For `C=CCn1c(=O)c2cnc(Nc3ccc(N4CCN(C)CC4)c(C)c3)nc2n1-c1ccc2c(n1)[C@@](C)(O)CCC2` (single isomer, unassigned) [Example 27A], the half-inhibitory concentration (IC50) was less than 0.01 µM at Wee1 kinase (setting [1]) and 0.1 to 1 µM in the assay on H23 cells.
Consider `C=CCn1c(=O)c2cnc(Nc3ccc(N4CCN(C)CC4)c(C)c3)nc2n1-c1ccc2c(n1)[C@](C)(O)CCC2` (single isomer, unassigned) [Example 27B], for which the values for the IC50 at Wee1 kinase (setting [1]) and in the assay on H23 cells were less than 0.01 µM and 0.1 to 1 µM, respectively.
As for `C=CCn1c(=O)c2cnc(Nc3ccc4c(c3)CNCC43CC3)nc2n1-c1ccc2c(n1)[C@](O)(C(F)(F)F)CC2` (single isomer, unassigned) [Example 30A], the 50% inhibitory concentration (IC50) was less than 0.01 µM on Wee1 kinase and 0.1 to 1 µM with H23 cells.
The matching figures for `C=CCn1c(=O)c2cnc(Nc3ccc4c(c3)CNCC43CC3)nc2n1-c1ccc2c(n1)[C@@](O)(C(F)(F)F)CC2` (single isomer, unassigned) [Example 30B]: less than 0.01 µM and 0.1 to 1 µM.
In the case of `C=CCn1c(=O)c2cnc(Nc3ccc(N4CCN(C)CC4)cc3)nc2n1-c1cnc2c(c1)[C@@](C)(O)CO2` (single isomer, unassigned) [Example 35A, 2-allyl-1-(3-hydroxy-3-methyl-2,3-dihydrofuro[2,3-b]pyridin-5-yl)-6-((4-(4-methylpiperazin-1-yl)phenyl)amino)-1,2-dihydro-3H-pyrazolo[3,4-d]pyrimidin-3-one], the concentration for half-maximal inhibition (IC50) on Wee1 kinase (setting [1]) was 0.01 to 0.1 µM; with H23 cells, greater than 1 µM.
In the case of `C=CCn1c(=O)c2cnc(Nc3ccc(N4CCN(C)CC4)cc3)nc2n1-c1cnc2c(c1)[C@](C)(O)CO2` (single isomer, unassigned) [Example 35B], the IC50 was 0.01 to 0.1 µM on Wee1 kinase (setting [1]) and greater than 1 µM in the assay with H23 cells.
Take `C=CCn1c(=O)c2cnc(Nc3ccc(N4CCN(C)CC4)cc3)nc2n1-c1cn2c(n1)[C@@](C)(O)CC2` (single isomer, unassigned) [Example 36A]: the IC50 at Wee1 kinase (setting [1]) is 0.01 to 0.1 µM; in the assay on H23 cells, greater than 1 µM.
`C=CCn1c(=O)c2cnc(Nc3ccc(N4CCN(C)CC4)cc3)nc2n1-c1cn2c(n1)[C@](C)(O)CC2` (single isomer, unassigned) [Example 36B]: the IC50 on Wee1 kinase (setting [1]) was greater than 0.1 µM; in the assay on H23 cells, greater than 1 µM.
Regarding `C=CCn1c(=O)c2cnc(Nc3ccc(N4CCNCC4)cc3)nc2n1-c1ccc2c(n1)[C@@](O)(CC)CC2` [Example 14, (R)-2-allyl-1-(7-ethyl-7-hydroxy-6,7-dihydro-5H-cyclopenta[b]pyridin-2-yl)-6-((4-(piperazin-1-yl)phenyl)amino)-1,2-dihydro-3H-pyrazolo[3,4-d]pyrimidin-3-one], the IC50 with H23 cells was in the range of 0.1 to 1 µM.
Turning to `C=CCn1c(=O)c2cnc(Nc3ccc(N4CCN(C)CC4)cc3)nc2n1-c1ccc2c(n1)C(=O)NC2` [Example 34, 2-allyl-6-((4-(4-methylpiperazin-1-yl)phenyl)amino)-1-(7-oxo-6,7-dihydro-5H-pyrrolo[3,4-b]pyridin-2-yl)-1,2-dihydro-3H-pyrazolo[3,4-d]pyrimidin-3-one], the IC50 on Wee1 kinase (setting [1]) is less than 0.01 µM.
